From patent US6528653B2, “Thienopyrrolidinones” (Hoffmann-La Roche, Inc., priority 2000, dated 2003)

system: LPS-induced TNF-α production in THP-1 cells; assay: Inhibition of LPS-induced TNF-α production in THP-1 cells (TNF-α ELISA); type: cell-based; settings: Homo sapiens, 30 min preincubation with compound, LPS 4 hours, TNF-α in supernatant by ELISA, percentage of DMSO control
Protocol: The assay uses a modification of the methods described in Blifield et al., Transplantation, 51:498-503 (1991).
(a) Induction of TNF Biosynthesis
THP-1 cells were suspended in serum free culture medium LGM-3 (Clonetics, Bio Whittaker, UK, Cat. No. CC-3211), at a concentration of 5×10^5 cells/ml and then plated in 96 well-plates (0.2 ml aliquots in each well). Test compounds were dissolved in DMSO and then diluted with the culture medium such that the final DMSO concentration was 1%. Twenty five μl aliquots of test solution or only medium with DMSO (control) were added to each well giving a final DMSO concentration of 0.1%. The cells were incubated for 30 min. at 37° C. LPS (Sigma Chemical Company, UK) was added to the wells at a final concentration of 2 μg/nml, and cells were incubated for an additional 4 hours. At the end of the incubation period, culture supernatants were collected and the amount of TNF-α present was determined using a commercial TNF-α ELISA assay as described below.
(b) ELISA Assay. Quantikine™ human TNF-α (R&D Systems Europe Ltd., UK) (Cat. No. DTA50 in 2000)
The assay was carried out according to the manufacturer's instructions with the following modifications. Assay plates were centrifuged at 200 g and a 200 μl sample added to each well. TNF-α standard was made up and diluted in LGM-3 culture medium. Samples in the ELISA plate were then incubated overnight at 4° C. instead of 2 hours at 37° C. TNF-α production for each condition was calculated and expressed as a percentage of DMSO control to enable IC50 calculation.

Row | Compound | IC50 [nM]
1 | O=C1Nc2sccc2/C1=C/c1ccc[nH]1 [Example 1, (Z)-4,6-Dihydro-4-[(1H-pyrrol-2yl)methylene]thieno[2,3-b]pyrrol-5-one] | 5080
2 | O=C1Nc2sccc2/C1=C/c1c[nH]nc1-c1ccccc1 [Example 9, (Z)-4,6-Dihydro-4-[(3-phenyl-1H-pyrazol-4-yl)methylene]-thieno[2,3-b]pyrrol-5-one] | 1100
3 | COc1cc[nH]c1/C=C1\C(=O)Nc2sccc21 [Example 13, (Z)-4,6-Dihydro-4-[(3-methoxy-1H-pyrrol-2-yl)methylene]-thieno[2,3-b]pyrrol-5-one] | 1590
4 | N#Cc1cc2c(s1)NC(=O)/C2=C\c1ccc[nH]1 [Example 20, (Z)-5,6-Dihydro-5-oxo-4-[(1H-pyrrol-2-yl)methylene]-4H-thieno[2,3-b]pyrrole-2-carbonitrile] | 3690
